# Laboratory results taken from publication PMC8040286 (iScience, 2021).
# Like-named read-outs stand apart in the source and are kept apart here.
# How the values were obtained:
# [1] = test system: T. cruzi epimastigotes (Y strain); experiment: microbe, parasite or virus in culture; format: cell-based, Trypanosoma cruzi; conditions: for Selectivity Index (CC50 CHO/IC50 Epi): CC50 CHO / IC50 epimastigotes; for IC50: Trypanosoma cruzi, 72 h, read-out: IC50 epimastigotes
# [2] = Cytotoxicity/antiproliferative MTT assay in CHO host cells; format: cell-based, hamster; conditions: Chinese hamster, CHO-K1 cells
# [3] = test system: T. cruzi parasite release from trypomastigote-infected CHO cells; experiment: microbe, parasite or virus in culture; format: cell-based; conditions: Trypanosoma cruzi; for IC50: read-out: IC50 inhibition of parasite release, serum-free conditions (high ROS), serum-free host cell culture as used in the screening
# [4] = test system: GFP-expressing T. cruzi (Y) trypomastigotes released from infected CHO cells; experiment: microbe, parasite or virus in culture; format: cell-based, Trypanosoma cruzi; conditions: for inhibition at 5 µM: read-out: Percentage inhibition of parasite release at 5 μM (low ROS)
# casein kinase 1 = conditions: read-out: IC50 casein kinase 1; ref Justiniano et al., 2014; cited from earlier work
# [5] = rodents; ref Li et al., 2020; cited from earlier work
# CHO-K1 cells = experiment: Cytotoxicity/antiproliferative MTT assay in CHO host cells; format: cell-based, hamster; conditions: read-out: CC50 CHO cells; 72-hr incubation; anthraquinones (Table 5)
# [6] = CC50 CHO cells, 72-hr incubation, anthraquinones (Table 5)
# [7] = Cytotoxicity CC50 CHO cells, 72 hr (Table 3)
# [8] = read-out: IC50 inhibition of parasite release, 0.5% hiFBS (low ROS), 0.5% hiFBS, low ROS, GFP-expressing trypomastigotes, 6 dpi
# [9] = Cytotoxicity CC50 CHO cells without FBS, 72 hr, without FBS
# [10] = read-out: Percentage inhibition of parasite release (serum-free) at 5 μM, 5 μM, serum-free, 6 dpi, CHO host cells
structure (smiles),measurement,setting,value
"O=C(Cn1ccnc1[N+](=O)[O-])NCc1ccccc1 [BZN, benznidazole, reference compound]",Selectivity Index (CC50 CHO/IC50 Epi),[1],>7
same,IC50,[1],13.8 ± 2.9 µM
same,CC50 at 72 h,[2]; [6],> 100 µM
same,CC50 at 72 h,[2]; [7],> 100 µM
same,IC50,[3],5 to 9 µM
same,inhibition at 5 µM,"[4]; Trypanosoma cruzi, CHO",84.9 ± 4.8%
same,IC50,[4]; [8],1.4 µM
"C=C1C(=O)O[C@@H]2/C=C(\C)CC/C=C(\C)CC[C@@H]12 [Costunolide, (6R, 7S)-costunolide]",IC50,[1],7.4 ± 5.9 µM
same,CC50 at 72 h,[2]; [9],35.4 ± 13.8 µM
same,CC50 at 72 h,[2]; [7],10.9 ± 3.7 µM
same,inhibition at 5 µM,[3]; [10],0%
C=C1CC[C@H]2C(=C)CC[C@H]3C(=C)C(=O)O[C@@H]3[C@@H]12 [Dehydrocostus lactone],IC50,[1],1.4 ± 0.4 µM
same,CC50 at 72 h,[2]; [9],12.2 ± 0.5 µM
same,CC50 at 72 h,[2]; [7],5.8 ± 1.9 µM
same,inhibition at 5 µM,[3]; [10],86.2 ± 4.1%
C=C[C@@H](O)C#CC#C[C@@H](O)/C=C\CCCCCCC [Falcarindiol],IC50,[1],> 50 µM
same,CC50 at 72 h,[2],> 100 µM
same,inhibition at 5 µM,[3]; read-out: Percentage inhibition of parasite release (serum-free) at 5 μM,0%
CC(=O)c1c(C)cc2cccc(O)c2c1O [Nepodin],IC50,[1],28.7 ± 13.3 µM
same,CC50 at 72 h,[2]; [7],> 100 µM
same,inhibition at 5 µM,[3]; [10],~30%
C=C1[C@@H]2[C@H]3OC(=O)C(=C)[C@@H]3CCC(=C)[C@@H]2C[C@@H]1O [Zaluzanin C],IC50,[1],6.7 ± 0.7 µM
same,CC50 at 72 h,[2]; [9],19.2 ± 5.2 µM
same,CC50 at 72 h,[2]; [7],6.6 ± 1.7 µM
same,inhibition at 5 µM,[3]; [10],71 ± 7.5%
"O=C1c2ccccc2C(=O)c2ccccc21 [compound 1, Anthraquinone]",IC50,[1],> 50 µM
same,CC50 at 72 h,[2],> 100 µM
same,inhibition at 5 µM,"[4]; Trypanosoma cruzi, CHO",22.2 ± 9.6%
"Cc1cc(O)c2c(c1)C(=O)c1cc(O)cc(O)c1C2=O [compound 2, Emodin]",Selectivity Index (CC50 CHO/IC50 Epi),[1],>7
same,IC50,[1],14.1 ± 8.2 µM
same,CC50 at 72 h,[2]; [6],> 100 µM
same,CC50 at 72 h,[2]; [7],> 100 µM
same,IC50,[3],0.72 µM
same,inhibition at 5 µM,[3]; [10],61.5 ± 18.2%
same,IC50,"[4]; Trypanosoma cruzi, CHO, read-out: IC50 inhibition of parasite release, 0.5% hiFBS (low ROS), 0.5% hiFBS, low ROS, GFP-expressing trypomastigotes, 6 dpi",9.52 µM
same,inhibition at 5 µM,"[4]; Trypanosoma cruzi, CHO",24.8 ± 12.9%
same,IC50,[4]; [8],9.5 µM
same,IC50,casein kinase 1,130 µM
same,oral bioavailability,[5],5–10%
"O=C1c2ccccc2C(=O)c2c(O)c(O)cc(O)c21 [compound 3, Purpurin]",IC50,[1],> 50 µM
same,CC50 at 72 h,[2]; [6],59.5 ± 10.1 µM
same,inhibition at 5 µM,"[4]; Trypanosoma cruzi, CHO",48.3 ± 18.1%
same,selectivity index (parasite release),"[4]; basis not stated, discussion",7
"O=C1c2ccccc2C(=O)c2c1ccc(O)c2O [compound 4, Alizarin]",IC50,[1],> 50 µM
same,inhibition at 5 µM,"[4]; Trypanosoma cruzi, CHO",0%
"O=C1c2ccccc2C(=O)c2c1cc(S(=O)(=O)O)c(O)c2O [compound 5, Alizarin Red S]",IC50,[1],> 50 µM
same,inhibition at 5 µM,"[4]; Trypanosoma cruzi, CHO",0%
"O=C1c2ccccc2C(=O)c2c(O)ccc(O)c21 [compound 6, Quinizarin]",Selectivity Index (CC50 CHO/IC50 Epi),[1],<1
same,IC50,[1],> 50 µM
same,CC50 at 72 h,[2]; [6],38 ± 16 µM
same,CC50,CHO-K1 cells,38.1 ± 16 µM
same,inhibition at 5 µM,"[4]; Trypanosoma cruzi, CHO",68.5 ± 19.2%
"O=C1c2cccc(O)c2C(=O)c2cccc(O)c21 [compound 7, Anthrarufin]",IC50,[1],> 50 µM
same,inhibition at 5 µM,"[4]; Trypanosoma cruzi, CHO",0%
"O=C1c2cccc(O)c2C(=O)c2c(O)cccc21 [compound 8, Dantron]",IC50,[1],5.3 ± 2.3 µM
same,inhibition at 5 µM,"[4]; Trypanosoma cruzi, CHO",0%
"O=C1c2ccc(O)cc2C(=O)c2ccc(O)cc21 [compound 9, Anthraflavic acid]",IC50,[1],> 50 µM
same,inhibition at 5 µM,"[4]; Trypanosoma cruzi, CHO",0%
"Cc1cc(O)c2c(c1)C(=O)c1cccc(O)c1C2=O [compound 10, Chrysophanol]",Selectivity Index (CC50 CHO/IC50 Epi),[1],5.4
same,IC50,[1],6.6 ± 3.5 µM
same,CC50 at 72 h,[2]; [6],35.7 ± 7.4 µM
same,inhibition at 5 µM,"[4]; Trypanosoma cruzi, CHO",22.6 ± 17.2%
"O=C1c2cccc(O)c2C(=O)c2c(O)cc(CO)cc21 [compound 11, Aloe-emodin]",Selectivity Index (CC50 CHO/IC50 Epi),[1],2.9
same,IC50,[1],14.5 ± 5.6 µM
same,CC50 at 72 h,[2]; [6],42 ± 15.5 µM
same,inhibition at 5 µM,"[4]; Trypanosoma cruzi, CHO",44 ± 17.6%
"COc1cc(O)c2c(c1)C(=O)c1cc(C)cc(O)c1C2=O [compound 12, Physcion]",IC50,[1],6.4 ± 3.7 µM
same,inhibition at 5 µM,"[4]; Trypanosoma cruzi, CHO",0%
"Cc1cc2c(cc1O)C(=O)c1ccccc1C2=O [compound 13, 2-Hydroxy-3-methylanthraquinone]",IC50,[1],> 50 µM
same,inhibition at 5 µM,"[4]; Trypanosoma cruzi, CHO",0%
"Cc1c(O)ccc2c1C(=O)c1ccccc1C2=O [compound 14, 2-Hydroxy-1-methylanthraquinone]",IC50,[1],> 50 µM
same,CC50 at 72 h,[2]; [6],88.9 ± 8.9 µM
same,inhibition at 5 µM,"[4]; Trypanosoma cruzi, CHO",20.9 ± 9.7%
"O=C(O)c1cc(O)c2c(c1)C(=O)c1cccc(O)c1C2=O [compound 15, Rhein]",IC50,[1],> 50 µM
same,inhibition at 5 µM,"[4]; Trypanosoma cruzi, CHO",0%
"CC(=O)Oc1cccc2c1C(=O)c1c(OC(C)=O)cc(C(=O)O)cc1C2=O [compound 16, Diacerein]",IC50,[1],> 50 µM
same,inhibition at 5 µM,"[4]; Trypanosoma cruzi, CHO",0%
"COc1cc(N)c2c(c1N)C(=O)c1ccccc1C2=O [compound 17, Disperse Red11]",Selectivity Index (CC50 CHO/IC50 Epi),[1],>3
same,IC50,[1],32.9 ± 13.9 µM
same,CC50 at 72 h,[2]; [6],> 100 µM
same,inhibition at 5 µM,"[4]; Trypanosoma cruzi, CHO",46.8 ± 25.6%
"COc1c(O)cc2c(c1O)C(=O)c1c(cc(C)c(O)c1OC)C2=O [compound 18, Aurantio-obtusin]",IC50,[1],> 50 µM
same,inhibition at 5 µM,"[4]; Trypanosoma cruzi, CHO",0%
